Patent US6461997B1, “Triazole sulfones having herbicidal activity” (Monsanto Technology LLC, priority 1999, dated 2002)

Key:
STEME (common chickweed) = assay: Pre-plant incorporated (PPI) herbicidal activity, cool season; format: in vivo, Stellaria media; conditions: for PPI activity GR80, STEME: pre-plant incorporated, lowest tested rate with 80% or greater inhibition, about 14 days
Procedure: (§1) In another set of tests, the pre-plant incorporated (PPI) activity of compounds of this invention was evaluated on the same species as for the pre-emergence tests described above. In the PPI tests the following procedure, designed to simulate PPI application, was used.
(§2) A pre-prepared topsoil mixture (described above) was placed in a pot and compacted to a depth of 1.0 to 1.25 cm from the top of the pot. Seeds of each of several monocotyledonous and dicotyledonous annual plant species were placed on top of the soil. A sufficient quantity of soil to cover the seeds and level fill the pot was weighed into an open container. A known amount of the test compound was dissolved or suspended in an organic solvent and applied by spraying to this cover soil. The cover soil was thoroughly mixed to distribute the test compound throughout the cover soil, and was then applied as a cover layer over the seeds. Untreated soil was used as a cover layer for control pots. After treatment the plants were placed in a greenhouse where they received 0.64 cm of overhead irrigation. All subsequent watering consisted of a light overhead mist and/or subirrigation as needed for germination and growth. Tables 9 and 10 below relate to warm season plant species which were placed after pre-emergence treatment in a greenhouse with a 30/21° C. day/night temperature regime. Tables 11 and 12 below relates to cool season plant species placed after pre-emergence treatment in a greenhouse or growth chamber with an 18/13° C. day/night temperature regime. Only the compounds of Examples 1, 6, 8, 11, 13 and 15-20 were included in PPI tests.
(§3) Approximately 14 days after planting and treating, the plants were observed and herbicidal efficacy recorded as percent inhibition by comparison with untreated plants.

SORVU (shattercane) = assay: Pre-plant incorporated (PPI) herbicidal activity, warm season; format: in vivo, Sorghum vulgare; conditions: for inhibition at 30 g/ha / inhibition at 100 g/ha / inhibition at 300 g/ha / inhibition at 900 g/ha / inhibition at 10 g/ha: Sorghum bicolor, read-out: Percent inhibition SORVU; for inhibition at 30 g/ha / inhibition at 100 g/ha / inhibition at 300 g/ha / inhibition at 900 g/ha / Percent inhibition SORVU / inhibition at 10 g/ha: PPI application; for PPI activity GR80, SORVU: pre-plant incorporated, lowest tested rate with 80% or greater inhibition, about 14 days
Procedure: as §1, §2, §3

POLCO (wild buckwheat) = assay: Pre-plant incorporated (PPI) herbicidal activity, cool season; format: in vivo, Polygonum convolvulus; conditions: for PPI activity GR80, POLCO: pre-plant incorporated, lowest tested rate with 80% or greater inhibition, about 14 days
Procedure: as §1, §2, §3

rice (ORYSA) = assay: Selectivity test, PPI, warm season crop; format: in vivo, Oryza sativa; conditions: PPI application; for inhibition at 30 g/ha / inhibition at 100 g/ha / inhibition at 300 g/ha / inhibition at 900 g/ha / inhibition at 10 g/ha: Oryza sativa, read-out: Percent inhibition ORYSA
Procedure: as §2, §3
Additional pre-emergence and PPI tests were conducted by the procedures described above, on warm and cool season weed species in the presence of crop species, to assess herbicidal selectivity. Crop species included in warm season tests were corn (Zea mays, ZEAMX), rice (Oryza sativa, ORYSA) and soybean (Glycine max, GLYMX). Crop species included in cool season tests were wheat (Triticum aestivum, TRZAW), barley (Hordeunm vulgare, HORVX) and oilseed rape (Brassica napus, BRSNS).
Tables 15 and 16 relate to pre-emergence and PPI tests respectively on warm season species. Table 17 relates to pre-emergence tests on cool season species.

ALOMY (blackgrass) = assay: Pre-emergence herbicidal activity, cool season; format: in vivo, Alopecurus myosuroides; conditions: GR80 = lowest tested rate (300, 100, 30, 10 g/ha) with 80% or greater inhibition; approx. 14 days after treating; 18/13° C.
In short: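 Activity is expressed as the rate giving 80% inhibition, with 300, 100, 30 and 10 g/ha typically tested. An asterisk marks activity short of 80% at the top rate. Warm-season grasses were held at 30/21 °C; cool-season blackgrass and wild buckwheat at 18/13 °C; scoring at about 14 days.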

SETFA (giant foxtail) = assay: Pre-emergence herbicidal activity, warm season; format: in vivo, Setaria faberi; conditions: GR80 = lowest tested rate (300, 100, 30, 10 g/ha) with 80% or greater inhibition; approx. 14 days after treating; 30/21° C.
In short: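 Seeds sown in sterilised fertilised topsoil received surface-applied compound in 50:50 acetone/water, typically at 300, 100, 30 and 10 g/ha, then greenhouse-grown at 30/21° C (warm-season species) or 18/13° C (cool-season species). Percent inhibition versus untreated plants was scored at about 14 days, giving GR80; an asterisk marks activity short of 80% at the top rate.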

[1] = tested on: AGSST (creeping bentgrass); assay: Pre-emergence herbicidal activity, cool season; format: in vivo, Agrostis stolonifera; conditions: GR80 = lowest tested rate (300, 100, 30, 10 g/ha) with 80% or greater inhibition; approx. 14 days after treating; 18/13° C.
In short: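 GR80 values derive from percent inhibition relative to untreated plants, read roughly 14 days after sowing and pre-emergence soil-surface treatment (compound in 50:50 acetone/water; rates typically 10, 30, 100, 300 g/ha). Warm-season weeds grew at 30/21° C day/night, cool-season ones at 18/13° C; an asterisk marks activity without reaching 80% at the highest rate.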

ABUTH (velvetleaf) = assay: Pre-plant incorporated (PPI) herbicidal activity, warm season; format: in vivo, Abutilon theophrasti; conditions: for inhibition at 30 g/ha / inhibition at 100 g/ha / inhibition at 300 g/ha / inhibition at 900 g/ha / inhibition at 10 g/ha: Abutilon theophrasti, read-out: Percent inhibition ABUTH; for inhibition at 30 g/ha / inhibition at 100 g/ha / inhibition at 300 g/ha / inhibition at 900 g/ha / Percent inhibition ABUTH / inhibition at 10 g/ha: PPI application; for PPI activity (GR80) ABUTH: pre-plant incorporated, GR80 = lowest tested rate with 80% or greater inhibition, approx. 14 days after treating, 30/21° C.
Procedure: as §1, §2, §3

[2] = weed, PPI application, 100 g/ha
[3] = weed, PPI application, 300 g/ha
[4] = weed, PPI application, 900 g/ha

Compound	PPI activity GR80, STEME (STEME (common chickweed)) [g/ha]	inhibition at 30 g/ha (SORVU (shattercane); 30 g/ha) [%]	inhibition at 100 g/ha (SORVU (shattercane); 100 g/ha) [%]	inhibition at 300 g/ha (SORVU (shattercane); 300 g/ha) [%]	inhibition at 900 g/ha (SORVU (shattercane); 900 g/ha) [%]	PPI activity GR80, SORVU (SORVU (shattercane)) [g/ha]	PPI activity GR80, POLCO (POLCO (wild buckwheat))	inhibition at 30 g/ha (rice (ORYSA); 30 g/ha) [%]	inhibition at 100 g/ha (rice (ORYSA); 100 g/ha) [%]	inhibition at 300 g/ha (rice (ORYSA); 300 g/ha) [%]	inhibition at 900 g/ha (rice (ORYSA); 900 g/ha) [%]	Pre-emergence activity (GR80) ALOMY (ALOMY (blackgrass)) [g/ha]	Pre-emergence activity (GR80) SETFA (SETFA (giant foxtail)) [g/ha]	Pre-emergence activity (GR80) AGSST [1] [g/ha]	inhibition at 30 g/ha (ABUTH (velvetleaf); 30 g/ha) [%]	inhibition at 100 g/ha (ABUTH (velvetleaf); 100 g/ha) [%]	inhibition at 300 g/ha (ABUTH (velvetleaf); 300 g/ha) [%]	inhibition at 900 g/ha (ABUTH (velvetleaf); 900 g/ha) [%]	PPI activity (GR80) ABUTH (ABUTH (velvetleaf)) [g/ha]	inhibition at 10 g/ha (SORVU (shattercane)) [%]	also measured
CCSC(F)(F)S(=O)(=O)c1ncn(C(=O)N(CC)CC)n1 [Example 8, 1-(N,N-diethylcarbamoyl)-3-[difluoro(ethylthio)methylsulfonyl]-1,2,4-triazole]	30	50	70	100	100	300	300 g/ha	0	40	50	70	100	100	30	0	10	20	100	300		inhibition at 30 g/ha (STEME (common chickweed); Stellaria media, weed, PPI application, 30 g/ha, read-out: Percent inhibition STEME): 80%; inhibition at 100 g/ha (STEME (common chickweed); Stellaria media, weed, PPI application, 100 g/ha, read-out: Percent inhibition STEME): 80%; inhibition at 300 g/ha (STEME (common chickweed); Stellaria media, weed, PPI application, 300 g/ha, read-out: Percent inhibition STEME): 95%; inhibition at 900 g/ha (STEME (common chickweed); Stellaria media, weed, PPI application, 900 g/ha, read-out: Percent inhibition STEME): 99%; inhibition at 30 g/ha (POLCO (wild buckwheat); Fallopia convolvulus, weed, PPI application, 30 g/ha, read-out: Percent inhibition POLCO): 0%; inhibition at 100 g/ha (POLCO (wild buckwheat); Fallopia convolvulus, weed, PPI application, 100 g/ha, read-out: Percent inhibition POLCO): 0%; inhibition at 300 g/ha (POLCO (wild buckwheat); Fallopia convolvulus, weed, PPI application, 300 g/ha, read-out: Percent inhibition POLCO): 85%; inhibition at 900 g/ha (POLCO (wild buckwheat); Fallopia convolvulus, weed, PPI application, 900 g/ha, read-out: Percent inhibition POLCO): 100%
CCN(CC)C(=O)n1cnc(S(=O)(=O)C(F)(F)SC)n1 [Example 9]												300	100	30							Percent inhibition STEME (STEME (common chickweed); weed, PPI application, 30 g/ha): 70%; Percent inhibition STEME (STEME (common chickweed); [2]): 95%; Percent inhibition STEME (STEME (common chickweed); [3]): 100%; Percent inhibition STEME (STEME (common chickweed); [4]): 100%; Percent inhibition SORVU (SORVU (shattercane); 30 g/ha): 60%; Percent inhibition SORVU (SORVU (shattercane); 100 g/ha): 70%; Percent inhibition SORVU (SORVU (shattercane); 300 g/ha): 100%; Percent inhibition SORVU (SORVU (shattercane); 900 g/ha): 100%; Percent inhibition POLCO (POLCO (wild buckwheat); weed, PPI application, 30 g/ha): 0%; Percent inhibition POLCO (POLCO (wild buckwheat); [2]): 0%; Percent inhibition POLCO (POLCO (wild buckwheat); [3]): 95%; Percent inhibition POLCO (POLCO (wild buckwheat); [4]): 100%; Percent inhibition ORYSA (rice (ORYSA); 30 g/ha): 0%; Percent inhibition ORYSA (rice (ORYSA); 100 g/ha): 0%; Percent inhibition ORYSA (rice (ORYSA); 300 g/ha): 70%; Percent inhibition ORYSA (rice (ORYSA); 900 g/ha): 95%; Percent inhibition ABUTH (ABUTH (velvetleaf); 30 g/ha): 0%; Percent inhibition ABUTH (ABUTH (velvetleaf); 100 g/ha): 0%; Percent inhibition ABUTH (ABUTH (velvetleaf); 300 g/ha): 60%; Percent inhibition ABUTH (ABUTH (velvetleaf); 900 g/ha): 90%
C=C(C)CC(F)(F)S(=O)(=O)c1ncn(C(=O)N(CC)CC)n1 [Example 18]	100	50	50	100	100	100	100 g/ha	0	0	15	10	300	100	30	0	0	70	90	100	20	inhibition at 10 g/ha (rice (ORYSA)): 0%; inhibition at 10 g/ha (ABUTH (velvetleaf)): 0%
C=C(Br)CC(F)(F)S(=O)(=O)c1ncn(C(=O)N(CC)CC)n1 [Example 19]	100	50	65	100	100	300	* (activity observed, at least at highest rate, but <80% inhibition)	0	0		20	100	300	30	0	0	0	60	30	30	inhibition at 10 g/ha (rice (ORYSA)): 0%; inhibition at 10 g/ha (ABUTH (velvetleaf)): 0%
